Laboratory results reported in patent US12662451B2, “Chemical compounds and uses thereof” (GLAXOSMITHKLINE INTELLECTUAL PROPERTY (NO.4) LIMITED, priority 2023, dated 2026).

What was measured:
[1] = system: SW48 human colorectal cancer cells (MSI-H cancer cells); test: SW48 cell viability, CellTiter-Glo, 120 hours (Example B); settings: Homo sapiens, SW48, 120 h, read-out: SW48 pCC50, SW48 cell viability, 120 hours incubation (converted); Table 2
Method: SW48 human colorectal cancer cells (MSI-H cancer cells) were obtained from the American Type Culture Collection and maintained in growth medium composed of RPMI-1640 supplemented with 10% fetal bovine serum. Cells were maintained in a humidified 5% CO2 incubator at 37° C. Cell dissociation was conducted using TrypLE Select to detach cells from culture flasks. Following dissociation, cells were centrifuged briefly and resuspended in assay medium RPMI-1640+10% fetal bovine serum. Black 384-well assay plates were prepared from source plates of DMSO and compounds dissolved in DMSO prior to cell dispensation. These source plates were prepared in eleven point, 3-fold serial dilutions from 10 mM stocks stored at 4° C. Compounds and DMSO controls were dispensed into assay plates at 150 nanoliters per well from source plates using Labcyte Echo 555 or Echo 655T dispensers with Column 6 and Column 18 containing DMSO only. Cells were then seeded into prepared assay plates in 50 microliters assay medium at 250 cells per well into Columns 1 thru 17 and Columns 19-24. Assay medium without cells was added to column 18 to serve as a surrogate for 100% cell cytotoxicity. Following incubation for 120 hours in a humidified 5% CO2 incubator at 37° C., cellular ATP concentration of each well was measured and used as a surrogate of cell viability. This was performed by adding 50 microliters of CellTiter-Glo reagent to each well followed by a 10-minute incubation at room temperature. Luminescence was measured on a Synergy Neo or Synergy Neo2 multimode plate reader. Compound cytotoxic response (% C) was normalized to the robust means of column 6 (Control 1, 0% Cytotoxicity) and column 18 (Control 2, 100% Cytotoxicity) and normalized % cytotoxicity (% C) calculated. % C=100−100*((Compound−Control 2)/(Control1−Control2)). These normalized data were then used to determine a 50% cytotoxic response (CC50) using 4-parameter logistic curve model 201 in Activity Base XE:
[formula] • where A=minimum asymptote (% cytotoxicity), B=maximum asymptote (% cytotoxicity), C=Log CC50 (pCC50), D=Hill slope, and x=[inhibitor], (M).

[2] = molecular target: T1, recombinant full-length WRN protein (1-1432) (Homo sapiens, UniProt Q14191); test: WRN unwinding activity, fluorogenic 384-well assay (Example A); assay type: biochemical; settings: WRN unwinding activity, 4 hr; Table 2; read-out: 4 hr UNW pIC50 (converted)
T1 construct: recombinant full-length WRN protein (1-1432)
T1 sequence (Q14191 whole entry): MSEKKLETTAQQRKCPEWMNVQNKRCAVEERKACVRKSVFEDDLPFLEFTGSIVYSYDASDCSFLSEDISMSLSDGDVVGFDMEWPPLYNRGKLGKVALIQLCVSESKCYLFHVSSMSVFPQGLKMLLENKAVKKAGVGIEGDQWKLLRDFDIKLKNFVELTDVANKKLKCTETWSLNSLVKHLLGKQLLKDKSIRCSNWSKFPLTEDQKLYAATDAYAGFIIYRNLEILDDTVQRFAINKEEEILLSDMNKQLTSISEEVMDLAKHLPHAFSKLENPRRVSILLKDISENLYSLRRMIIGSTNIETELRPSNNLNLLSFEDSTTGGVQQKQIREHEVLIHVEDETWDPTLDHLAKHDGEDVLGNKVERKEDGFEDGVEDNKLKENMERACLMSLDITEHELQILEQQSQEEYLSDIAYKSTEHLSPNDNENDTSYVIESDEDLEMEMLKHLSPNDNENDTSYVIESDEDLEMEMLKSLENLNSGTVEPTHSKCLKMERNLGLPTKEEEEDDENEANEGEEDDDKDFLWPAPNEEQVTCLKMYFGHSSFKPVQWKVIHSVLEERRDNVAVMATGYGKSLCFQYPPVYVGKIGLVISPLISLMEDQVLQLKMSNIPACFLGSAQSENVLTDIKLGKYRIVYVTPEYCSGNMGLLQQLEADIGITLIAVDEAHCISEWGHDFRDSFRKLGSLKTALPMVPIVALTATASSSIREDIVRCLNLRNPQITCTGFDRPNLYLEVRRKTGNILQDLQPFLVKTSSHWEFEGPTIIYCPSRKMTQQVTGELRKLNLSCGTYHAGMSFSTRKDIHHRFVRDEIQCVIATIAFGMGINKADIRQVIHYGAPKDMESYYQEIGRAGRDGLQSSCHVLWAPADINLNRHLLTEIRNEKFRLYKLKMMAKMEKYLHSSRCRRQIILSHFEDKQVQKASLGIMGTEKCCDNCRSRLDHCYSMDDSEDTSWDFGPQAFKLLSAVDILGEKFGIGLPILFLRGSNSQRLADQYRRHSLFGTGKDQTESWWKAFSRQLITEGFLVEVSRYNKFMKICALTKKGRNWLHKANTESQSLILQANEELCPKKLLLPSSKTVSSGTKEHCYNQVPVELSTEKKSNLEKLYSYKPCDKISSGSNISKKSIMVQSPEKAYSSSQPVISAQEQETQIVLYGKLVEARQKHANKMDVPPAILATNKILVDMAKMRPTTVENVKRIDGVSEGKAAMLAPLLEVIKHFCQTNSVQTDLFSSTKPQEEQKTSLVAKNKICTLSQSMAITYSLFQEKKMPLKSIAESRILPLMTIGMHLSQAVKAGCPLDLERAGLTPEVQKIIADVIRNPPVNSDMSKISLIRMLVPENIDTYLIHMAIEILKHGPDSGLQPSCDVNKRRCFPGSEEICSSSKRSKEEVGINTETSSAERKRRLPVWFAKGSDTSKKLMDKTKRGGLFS
In short: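 Read-out is end-point unwinding of a fluorophore/quencher duplex (ex 525, em 598 nm) after 60 min with 200 μM ATP and 12 nM DNA (2× stocks), EDTA stop. Compound first sat 4 h with 200 pM WRN (2× stock) in pH 8.0 Tris buffer; four-parameter fit gives pIC50.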

IC50 [2] [µM] | Structure (SMILES) | CC50 [1] [µM]
0.0316 | CC(=O)N(C)[C@@H]1C[C@H](C(=O)Nc2ccc(C(F)(F)F)cc2F)[C@@H](C(=O)O)[C@H](c2ccc(N(C)S(=O)(=O)c3ccc4c(c3)nc(C)n4C)cc2)C1 (stereo in doubt) [Example 291, rel-(1R,2R,4R,6S)-2-((2-fluoro-4-(trifluoromethyl)phenyl)carbamoyl)-4-(N-methylacetamido)-6-(4-((N,1,2-trimethyl-1H-benzo[d]imidazole)-5-sulfonamido)phenyl)cyclohexane-1-carboxylic acid] | 12.6
0.00158 | Cc1nc2cc(S(=O)(=O)N(C)c3ccc([C@H]4C[C@H](N)C[C@@H](C(=O)Nc5ccc(C(F)(F)F)cc5F)[C@@H]4C(=O)O)cc3)ccc2n1C (stereo in doubt) [Example 300, rel-(1R,2R,4S,6S)-4-amino-2-((2-fluoro-4-(trifluoromethyl)phenyl)carbamoyl)-6-(4-((N,1,2-trimethyl-1H-benzo[d]imidazole)-5-sulfonamido)phenyl)cyclohexane-1-carboxylic acid] | 12.6
3.98 | Cc1nc2cc(S(=O)(=O)N(C)c3ccc([C@@H]4C[C@@H](N5CCC(F)(F)C5)C[C@H](C(=O)Nc5ccc(C(F)(F)F)cc5F)[C@H]4C(=O)O)cc3)ccc2n1C (stereo in doubt) [Example 303, rel-(1R,2R,4S,6S)-4-(3,3-difluoropyrrolidin-1-yl)-2-((2-fluoro-4-(trifluoromethyl)phenyl)carbamoyl)-6-(4-((N,1,2-trimethyl-1H-benzo[d]imidazole)-5-sulfonamido)phenyl)cyclohexane-1-carboxylic acid] | 25.1
0.0158 | Cc1nc2cc(S(=O)(=O)N(C)c3ccc([C@H]4C[C@H](N5CCC(F)(F)C5)C[C@@H](C(=O)Nc5ccc(C(F)(F)F)cc5F)[C@@H]4C(=O)O)cc3)ccc2n1C (stereo in doubt) [Example 304, rel-(1R,2R,4S,6S)-4-(3,3-difluoropyrrolidin-1-yl)-2-((2-fluoro-4-(trifluoromethyl)phenyl)carbamoyl)-6-(4-((N,1,2-trimethyl-1H-benzo[d]imidazole)-5-sulfonamido)phenyl)cyclohexane-1-carboxylic acid] | 12.6
0.158 | Cc1nc2cc(S(=O)(=O)N(C)c3ccc([C@@H]4C[C@H](OC(C)C)C[C@H](C(=O)Nc5ccc(C(F)(F)F)cc5F)[C@H]4C(=O)O)cc3)ccc2n1C (stereo in doubt) [Example 312, rel-(1R,2R,4R,6S)-2-((2-fluoro-4-(trifluoromethyl)phenyl)carbamoyl)-4-isopropoxy-6-(4-((N,1,2-trimethyl-1H-benzo[d]imidazole)-5-sulfonamido)phenyl)cyclohexane-1-carboxylic acid] | 12.6
0.251 | Cc1nc2cc(S(=O)(=O)N(C)c3ccc([C@@H]4C[C@H](OCC5CC5)C[C@H](C(=O)Nc5ccc(C(F)(F)F)cc5F)[C@H]4C(=O)O)cc3)ccc2n1C (stereo in doubt) [Example 313, rel-(1R,2R,4R,6S)-4-(cyclopropylmethoxy)-2-((2-fluoro-4-(trifluoromethyl)phenyl)carbamoyl)-6-(4-((N,1,2-trimethyl-1H-benzo[d]imidazole)-5-sulfonamido)phenyl)cyclohexane-1-carboxylic acid] | 20
0.2 | Cc1nc2cc(S(=O)(=O)N(C)c3ccc([C@@H]4C[C@H](OC[C@H]5CCOC5)C[C@H](C(=O)Nc5ccc(C(F)(F)F)cc5F)[C@H]4C(=O)O)cc3)ccc2n1C (stereo in doubt) [Example 318, (1R*,2R*,4R*,6S*)-2-((2-fluoro-4-(trifluoromethyl)phenyl)carbamoyl)-4-(((S)-tetrahydrofuran-3-yl)methoxy)-6-(4-((N,1,2-trimethyl-1H-benzo[d]imidazole)-5-sulfonamido)phenyl)cyclohexane-1-carboxylic acid] | 12.6
0.316 | Cc1nc2cc(S(=O)(=O)N(C)c3ccc([C@@H]4C[C@H](OC[C@@H]5CCOC5)C[C@H](C(=O)Nc5ccc(C(F)(F)F)cc5F)[C@H]4C(=O)O)cc3)ccc2n1C (stereo in doubt) [Example 319, (1R*,2R*,4R*,6S*)-2-((2-fluoro-4-(trifluoromethyl)phenyl)carbamoyl)-4-(((R)-tetrahydrofuran-3-yl)methoxy)-6-(4-((N,1,2-trimethyl-1H-benzo[d]imidazole)-5-sulfonamido)phenyl)cyclohexane-1-carboxylic acid] | 12.6
0.126 | Cc1nc2cc(S(=O)(=O)N(C)c3ccc([C@@H]4C[C@H](OC[C@H]5COCCO5)C[C@H](C(=O)Nc5ccc(C(F)(F)F)cc5F)[C@H]4C(=O)O)cc3)ccc2n1C (stereo in doubt) [Example 328, (1R*,2R*,4R*,6S*)-4-(((R)-1,4-dioxan-2-yl)methoxy)-2-((2-fluoro-4-(trifluoromethyl)phenyl)carbamoyl)-6-(4-((N,1,2-trimethyl-1H-benzo[d]imidazole)-5-sulfonamido)phenyl)cyclohexane-1-carboxylic acid] | 15.8
0.398 | Cc1nc2cc(S(=O)(=O)N(C)c3ccc([C@@H]4C[C@H](N5CCC[C@@H](F)C5)C[C@H](C(=O)Nc5ccc(C(F)(F)F)cc5F)[C@H]4C(=O)O)cc3)ccc2n1C (stereo in doubt) [Example 345, rel-(1R*,2R*,4R*,6S*)-2-((2-fluoro-4-(trifluoromethyl)phenyl)carbamoyl)-4-((R)-3-fluoropiperidin-1-yl)-6-(4-((N,1,2-trimethyl-1H-benzo[d]imidazole)-5-sulfonamido)phenyl)cyclohexane-1-carboxylic acid] | 12.6
1.58 | Cc1nc2cc(S(=O)(=O)N(C)c3ccc([C@@H]4C[C@H](OCC5CCOCC5)C[C@H](C(=O)Nc5ccc(C(F)(F)F)cc5F)[C@H]4C(=O)O)cc3)ccc2n1C (stereo in doubt) [Example 354, rel-(1R,2R,4R,6S)-2-((2-fluoro-4-(trifluoromethyl)phenyl)carbamoyl)-4-((tetrahydro-2H-pyran-4-yl)methoxy)-6-(4-((N,1,2-trimethyl-1H-benzo[d]imidazole)-5-sulfonamido)phenyl)cyclohexane-1-carboxylic acid] | 20
0.126 | Cc1nc2cc(S(=O)(=O)N(C)c3ccc([C@@H]4C[C@H](OCC5(C)COC5)C[C@H](C(=O)Nc5ccc(C(F)(F)F)cc5F)[C@H]4C(=O)O)cc3)ccc2n1C (stereo in doubt) [Example 366, rel-(1R,2R,4R,6S)-2-((2-fluoro-4-(trifluoromethyl)phenyl)carbamoyl)-4-((3-methyloxetan-3-yl)methoxy)-6-(4-((N,1,2-trimethyl-1H-benzo[d]imidazole)-5-sulfonamido)phenyl)cyclohexane-1-carboxylic acid] | 15.8
0.501 | Cc1nc2cc(S(=O)(=O)N(C)c3ccc([C@@H]4C[C@@H](N5CC[C@H](F)C5)C[C@H](C(=O)Nc5ccc(C(F)(F)F)cc5F)[C@H]4C(=O)O)cc3)ccc2n1C (stereo in doubt) [Example 379, rel-(1R*,2R*,4S*,6S*)-2-((2-fluoro-4-(trifluoromethyl)phenyl)carbamoyl)-4-((S)-3-fluoropyrrolidin-1-yl)-6-(4-((N,1,2-trimethyl-1H-benzo[d]imidazole)-5-sulfonamido)phenyl)cyclohexane-1-carboxylic acid] | 20
0.398 | Cc1nc2cc(S(=O)(=O)N(C)c3ccc([C@@H]4C[C@@H](N5CC[C@@H](F)C5)C[C@H](C(=O)Nc5ccc(C(F)(F)F)cc5F)[C@H]4C(=O)O)cc3)ccc2n1C (stereo in doubt) [Example 384, rel-(1R*,2R*,4S*,6S*)-2-((2-fluoro-4-(trifluoromethyl)phenyl)carbamoyl)-4-((R)-3-fluoropyrrolidin-1-yl)-6-(4-((N,1,2-trimethyl-1H-benzo[d]imidazole)-5-sulfonamido)phenyl)cyclohexane-1-carboxylic acid] | 25.1
0.0631 | Cc1nc2cc(S(=O)(=O)N(C)c3ccc([C@@H]4C[C@@]5(CCCO5)C[C@H](C(=O)Nc5ccc(C(F)(F)F)cc5F)[C@H]4C(=O)O)cc3)ccc2n1C (stereo in doubt) [Example 387, rel-(5R,7R,8R,9S)-7-((2-fluoro-4-(trifluoromethyl)phenyl)carbamoyl)-9-(4-((N,1,2-trimethyl-1H-benzo[d]imidazole)-5-sulfonamido)phenyl)-1-oxaspiro[4.5]decane-8-carboxylic acid] | 10
1 | O=C(O)[C@@H]1[C@@H](c2ccc(-c3cccc4[nH]ncc34)cc2)CCC[C@H]1C(=O)Nc1ccc(C(F)(F)F)cc1F [Example 1, (1R,2S,6R)-2-(4-(1H-indazol-4-yl)phenyl)-6-((2-fluoro-4-(trifluoromethyl)phenyl)carbamoyl)cyclohexane-1-carboxylic acid] | 10
1.26 | O=C(O)[C@@H]1[C@@H](c2ccc(-c3cccc4cnccc34)cc2)CCC[C@H]1C(=O)Nc1ccc(C(F)(F)F)cc1F [Example 2, (1R,2R,6S)-2-((2-fluoro-4-(trifluoromethyl)phenyl)carbamoyl)-6-(4-(isoquinolin-5-yl)phenyl)cyclohexane-1-carboxylic acid] | 12.6
0.00398 | Cn1nccc1-c1ccc([C@H]2CCC[C@@H](C(=O)Nc3ccc(C(F)(F)F)cc3F)[C@@H]2C(=O)O)cc1 [Example 3, (1R,2R,6S)-2-((2-fluoro-4-(trifluoromethyl)phenyl)carbamoyl)-6-(4-(1-methyl-1H-pyrazol-5-yl)phenyl)cyclohexane-1-carboxylic acid] | 10
